Results published in patent US12630501B2, “Anti-fibrotic compounds and use thereof” (HADASIT MEDICAL RESEARCH SERVICES AND DEVELOPMENT LTD., priority 2019, dated 2026).

What was measured:
[1] = system: Ku70; assay: Ku70-IP and immunoblots of myofibroblasts isolated from lungs of BLM-treated mice given CMH; assay type: in vivo, mouse; details: CMH 30 μM OA day 6, sacrifice day 14
Method: Oropharyngeal aspiration (OA) and induction of lung fibrosis in mice Oropharyngeal aspiration of BLM (OA-BLM) was performed as detailed in Golan-Gerstl et al., Am. J. Respir. Cell Mol. Biol. 36: 270-275, 2007. Lung fibrosis was assessed via semi-quantitative morphological index (Wallach-Dayan et al., PNAS USA 104: 20460-20465, 2007). Lung collagen was measured using a Sircol Collagen Assay kit (Biocolor, Belfast, Northern Ireland), and standard protocol of trichrome staining. Isolation of mouse lung myofibroblasts Myofibroblast isolation and culture was performed as described in Golan-Gerstl et al., Am. J. Respir. Cell Mol. Biol. 36: 270-275, 2007; and Wallach-Dayan et al., PNAS USA 104: 20460-20465, 2007.
Immunoprecipitation and immunoblotting Standard protocols were performed as described in Golan-Gerstl et al., Am. J. Respir. Cell Mol. Biol. 47: 271-279, 2012.
CMH (30 μM) or control vehicle 4% DMSO were administered into WT mice by a second OA on day 6 of OA-BLM (0.05 mU), or control-saline (FIG. 6A). Similar to SIRT1^y/y mice, BLM-treated mice and control saline-treated mice (FIG. 6B) that were exposed to CMH vs. vehicle alone, had low SIRT1 and FLIP expression in lung sections. Myofibroblasts isolated from lungs of BLM-treated mice had decreased Ku70 binding to SIRT1 from 1.2 to 0.6 (FIG. 6C), increased Ku70 acetylation from an OD of 0.1 to 0.91 (FIG. 6D), and decreased Ku70/FLIP complex from an OD of 2.43 to 1.55 (FIG. 6E). Compared to vehicle, CMH-treated mice reduced H&E and collagen-trichrome staining (FIG. 6F, upper and lower panels, respectively), SMI grade (average SMI from 2 to 1.1, FIG. 6G), and collagen in Sircol assay (from 200 μg to only 50 μg, FIG. 6H). Thus, In vivo inhibition of SIRT1 activity, FLIP expression, and lung fibrosis were detected in CMH-BLM-treated mice and attenuation of deacetylation activity on Ku70, a decrease in Ku70/FLIP complex, and FLIP expression levels were detected in myofibroblasts isolated from lungs of CMH-BLM-treated mice. […]

[2] = biological target: HDAC3 (Homo sapiens, UniProt O15379); details: prostate cancer cells; cited from earlier work
HDAC3, sequence (O15379 whole entry, species assumed): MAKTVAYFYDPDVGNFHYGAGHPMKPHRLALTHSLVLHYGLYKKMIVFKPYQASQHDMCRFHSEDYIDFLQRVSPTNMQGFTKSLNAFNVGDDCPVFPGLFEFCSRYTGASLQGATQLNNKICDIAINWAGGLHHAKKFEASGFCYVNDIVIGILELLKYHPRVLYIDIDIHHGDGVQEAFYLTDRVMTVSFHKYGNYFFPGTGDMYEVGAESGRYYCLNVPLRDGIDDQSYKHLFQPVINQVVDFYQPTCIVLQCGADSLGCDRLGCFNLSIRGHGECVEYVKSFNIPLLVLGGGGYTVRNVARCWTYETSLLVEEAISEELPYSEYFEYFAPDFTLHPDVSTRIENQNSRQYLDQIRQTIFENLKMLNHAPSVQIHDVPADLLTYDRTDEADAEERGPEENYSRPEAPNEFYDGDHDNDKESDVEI
HDAC3, sequence (Q9Y618 395-489 partner limits assumed, species assumed): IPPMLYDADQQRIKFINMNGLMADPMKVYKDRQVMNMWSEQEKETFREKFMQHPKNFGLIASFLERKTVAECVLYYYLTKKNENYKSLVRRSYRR

[3] = system: IPF cell line ATCC191; assay: Total cell-lysate pan-acetyl immunoblot; assay type: cell-based, human; details: CMH 30 μM; vehicle 0.62
Method: IPF cell line ATCC191 and Normal cell line ATCC151 (0.5×10^6, 191 and 151, respectively), were cultured (10% DMEM) and total cell acetylations was compared. IPF cell line ATCC191 were further exposed in culture (10% DMEM) to CMH (30 μM, vs. 4% DMSO (vehicle)). Total cell-lysate immunoblots with subsequent pan-acetyl in IPF-lung vs. normal-lung myofibroblasts (191 vs. 151) was measured (FIG. 7A). IPF-lung myofibroblasts treated with CMH were compared to control treatment with vehicle (FIG. 7B). […] Thus, CMH inhibits IPF cell proteins-deacetylation and normalized it.

[4] = cited from earlier work
[5] = system: breast cancer cells and pancreatic cancer cells; details: cited from earlier work
[6] = biological target: T1, HDAC10 (Homo sapiens, UniProt Q969S8); details: prostate cancer cells; cited from earlier work
T1 sequence (Q969S8 1-669): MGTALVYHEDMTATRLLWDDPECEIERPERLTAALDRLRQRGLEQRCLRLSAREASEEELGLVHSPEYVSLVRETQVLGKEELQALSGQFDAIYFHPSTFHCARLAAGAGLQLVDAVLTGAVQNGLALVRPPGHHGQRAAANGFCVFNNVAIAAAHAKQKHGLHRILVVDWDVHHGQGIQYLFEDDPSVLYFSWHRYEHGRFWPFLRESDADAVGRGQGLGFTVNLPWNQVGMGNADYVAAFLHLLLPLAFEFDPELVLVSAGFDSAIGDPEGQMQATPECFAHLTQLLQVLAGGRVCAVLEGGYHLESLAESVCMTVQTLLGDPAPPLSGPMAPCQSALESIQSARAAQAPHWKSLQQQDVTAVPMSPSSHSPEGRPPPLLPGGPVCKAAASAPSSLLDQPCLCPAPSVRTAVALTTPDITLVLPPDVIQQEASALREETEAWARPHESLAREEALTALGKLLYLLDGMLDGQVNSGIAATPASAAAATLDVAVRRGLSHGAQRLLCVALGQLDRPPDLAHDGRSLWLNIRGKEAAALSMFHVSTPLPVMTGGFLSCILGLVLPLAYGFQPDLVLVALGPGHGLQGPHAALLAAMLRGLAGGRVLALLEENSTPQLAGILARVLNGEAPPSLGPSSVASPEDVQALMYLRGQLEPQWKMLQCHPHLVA

Cc1cc(Cl)ccc1OCCCC(=O)NO [CMH, 4-(4-chloro-2-methylphenoxy)-N-hydroxybutanamide]
Ku70 acetylation OD (Ku70-IP, pan-acetyl IB) ([1]; from 0.1): 0.91 OD | Ku70 binding to SIRT1 (Ku70-IP, SIRT1 IB) ([1]; from 1.2): 0.6 | Ku70/FLIP complex OD (Ku70-IP, FLIP IB) ([1]; from 2.43): 1.55 OD | Inhibition of HDAC3 [2]: Selective inhibition | Protein acetylation, optical density ratio to GAPDH (OD) in pan-acetyl immunoblots [3]: 1.77 OD | Water solubility [4]: low | Apoptosis [5]: increase | FLIP expression [5]: downregulate | Inhibition of HDAC10 [6]: not inhibited
